In patent US8188080B2 (Sanford-Burnham Medical Research Institute, priority 2007, dated 2012):
Like-named read-outs stand apart in the source and are kept apart here.

Assays:
VHR [1] = target: T1, VHR (Homo sapiens, UniProt P51452); assay: PTP-catalyzed hydrolysis of DiFMUP, IC50 determination (VHR); type: biochemical; conditions: read-out: IC50
Protocol: The PTP-catalyzed hydrolysis of 6,8-difluoro-4-methylumbelliferyl phosphate (DiFMUP) in the presence of the test compound is assayed at 30° C. in a 60 μL 96 well format reaction system in 0.15 M Bis-Tris, pH 6.0 assay buffer having an ionic strength of 150 mM (adjusted with NaCl) and containing 1 mM dithiotreitol and 5% DMSO. At various concentrations of the compound, the initial rate at fixed DiFMUP concentration (equal to the corresponding Km value for each PTP) was determined using a FLx800 micro plate reader (Bio-Tek Instruments, Inc.), an excitation wave length of 360 nm and measuring the emission of the fluorescent reaction product 6,8-difluoro-7-hydroxy-4-methylcoumarin (DiFMU) at 460 nm. The nonenzymatic hydrolysis of the substrate was corrected by measuring the control without addition of enzyme. The IC50 value was determined by plotting the relative activity versus inhibitor concentrations and fitting to Equation 1 using the software GraphPad Prism™ (GraphPad Software, Inc.).
[formula] In this case, Vi, is the reaction velocity when the inhibitor concentration is [I], V0 is the reaction velocity with no inhibitor and IC50=Ki+Ki[S]/Km.

HIV-1 protease = HIV-1 protease (Human immunodeficiency virus type 1 group M subtype B, UniProt P04585); conditions: cited from earlier work
heparanase = target: T2, heparanase (Homo sapiens, UniProt Q9Y251); conditions: cited from earlier work
T2 sequence (Q9Y251 158-543 limits assumed): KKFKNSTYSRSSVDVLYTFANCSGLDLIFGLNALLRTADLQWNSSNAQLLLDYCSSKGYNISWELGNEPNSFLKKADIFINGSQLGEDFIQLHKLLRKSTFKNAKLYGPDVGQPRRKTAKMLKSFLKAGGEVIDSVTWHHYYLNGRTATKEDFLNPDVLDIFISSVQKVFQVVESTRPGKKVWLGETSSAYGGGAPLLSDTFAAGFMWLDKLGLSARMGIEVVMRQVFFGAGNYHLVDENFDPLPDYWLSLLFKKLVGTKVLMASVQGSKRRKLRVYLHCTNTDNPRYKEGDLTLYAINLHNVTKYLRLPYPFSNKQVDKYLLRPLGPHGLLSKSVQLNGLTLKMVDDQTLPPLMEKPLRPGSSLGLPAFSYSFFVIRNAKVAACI
T2 sequence (Q9Y251 36-109 partner limits assumed): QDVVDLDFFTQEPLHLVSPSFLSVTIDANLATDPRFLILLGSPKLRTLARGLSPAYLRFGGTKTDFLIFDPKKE

Ball-1 cells = conditions: in vitro, arrest at G1/S transition; cited from earlier work
phospholipase A2 = conditions: cited from earlier work
VHR [2] = target: T1, VHR; assay: Inhibition constant and inhibition pattern (Lineweaver-Burk plot); type: biochemical; conditions: FIG. 1
Protocol: Using the same format and buffer system as for […] measurements, the enzyme was preincubated with various fixed concentrations of inhibitors for 10 minutes. The reaction was initiated by addition of various concentrations of DiFMUP (ranging from 0.2 to 10 km) to the reaction mixture. The initial rate was determined using a FLx800 micro plate reader (Bio-Tek Instruments, Inc.), and exitation wave length of 360 nm and measuring the emission of the fluorescent reaction product DiFMU at 460 nm. The nonenzymatic hydrolysis of the substrate was corrected by measuring the control without addition of enzyme. The inhibition constant and inhibition pattern was evaluated by fitting the data to the Michaelis-Menten equations for either competitive, uncompetitive or mixed inhibition, using nonlinear regression and the program GraphPad Prism™.

T1 sequence (P51452 whole entry): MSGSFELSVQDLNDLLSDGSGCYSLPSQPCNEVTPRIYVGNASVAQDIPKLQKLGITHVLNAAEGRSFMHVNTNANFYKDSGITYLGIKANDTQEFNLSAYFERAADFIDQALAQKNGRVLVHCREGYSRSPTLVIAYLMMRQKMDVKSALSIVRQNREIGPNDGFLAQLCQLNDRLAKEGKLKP

Question: Which IC50 (VHR [1]) does the source give for `O=C(CN1C(=O)C(/C=C2\SC(=S)N(CCS(=O)(=O)O)C2=O)c2ccccc21)Nc1ccc(F)cc1` (stereo not drawn) [Compound 4] here?
Answer: The IC50 was 12 µM.

Question: With `CCOc1cc(/C=C2\SC(=S)N(CCS(=O)(=O)O)C2=O)ccc1O` [Compound 1, (Z)-2-[5-(3-Ethoxy-4-hydroxybenzylidene)-4-oxo-2-thioxothiazolidin-3-yl)ethansulfonic acid] as the molecule, how does the IC50 (VHR [1]) read?
Answer: The IC50 was 50 µM.

Question: With `CCCCCCCCCCCCCCCC(=O)C1=C(O)C(CO)OC1=O` (stereo not drawn) [RK-682] as the molecule, how does the HIV-1 protease inhibition (HIV-1 protease) read?
Answer: The HIV-1 protease inhibition was “HIV-1 protease inhibition”.

Question: And the heparanase inhibition (heparanase)?
Answer: The heparanase inhibition was “heparanase inhibition”.

Question: And the cell cycle progression (Ball-1 cells)?
Answer: Its cell cycle progression is “inhibited cell cycle progression”.

Question: And the “phospholipase A2 inhibition” value (phospholipase A2)?
Answer: The value was “phospholipase A2 inhibition”.

Question: For `O=C1/C(=C/c2ccc(Cl)cc2Cl)SC(=S)N1CCS(=O)(=O)O` [Compound 2, (Z)-2-[5-(2,4-Dichlorobenzylidene)-4-oxo-2-thioxothiazolidin-3-yl)ethansulfonic acid], which IC50 (VHR [1]) is on record?
Answer: Its IC50 is 9.81 µM.

Question: Which IC50 (VHR [1]; Table I, DiFMUP at Km, pH 6.0, 30° C.) does the source give for “(Z)-2-[5-(5-bromo-1-methyl-2-oxoindolin-3-ylidene)-4-oxo-2-thioxothiazolindin-3-yl]ethanesulfonic acid [Compound 3]” here?
Answer: The IC50 was 32.6 µM.

Question: With `O=C1/C(=C/C=C/c2ccccc2)SC(=S)N1CCS(=O)(=O)O` [2-[(Z)-4-oxo-5-((E)-3-phenylallylidene)-2-thioxothiazolidin-3-yl]ethane-sulfonic acid] as the molecule, how does the “inhibition pattern of VHR” value (VHR [2]) read?
Answer: The value was “competitive inhibition”.
